ChEMBL document CHEMBL1128713, “N-alkylated nitrogen-in-the-ring sugars: conformational basis of inhibition of glycosidases and HIV-1 replication” (J Med Chem, 1995)
≈ marks a conversion by molar mass, not a printed value.

Columns and labels:
Alpha-mannosidase 2C1 = biological target: T1, Alpha-mannosidase 2C1 (Rattus norvegicus, UniProt P21139); assay: Inhibition of soluble Alpha-mannosidase II in rat liver; type: tissue-based
T1 sequence (P21139 whole entry): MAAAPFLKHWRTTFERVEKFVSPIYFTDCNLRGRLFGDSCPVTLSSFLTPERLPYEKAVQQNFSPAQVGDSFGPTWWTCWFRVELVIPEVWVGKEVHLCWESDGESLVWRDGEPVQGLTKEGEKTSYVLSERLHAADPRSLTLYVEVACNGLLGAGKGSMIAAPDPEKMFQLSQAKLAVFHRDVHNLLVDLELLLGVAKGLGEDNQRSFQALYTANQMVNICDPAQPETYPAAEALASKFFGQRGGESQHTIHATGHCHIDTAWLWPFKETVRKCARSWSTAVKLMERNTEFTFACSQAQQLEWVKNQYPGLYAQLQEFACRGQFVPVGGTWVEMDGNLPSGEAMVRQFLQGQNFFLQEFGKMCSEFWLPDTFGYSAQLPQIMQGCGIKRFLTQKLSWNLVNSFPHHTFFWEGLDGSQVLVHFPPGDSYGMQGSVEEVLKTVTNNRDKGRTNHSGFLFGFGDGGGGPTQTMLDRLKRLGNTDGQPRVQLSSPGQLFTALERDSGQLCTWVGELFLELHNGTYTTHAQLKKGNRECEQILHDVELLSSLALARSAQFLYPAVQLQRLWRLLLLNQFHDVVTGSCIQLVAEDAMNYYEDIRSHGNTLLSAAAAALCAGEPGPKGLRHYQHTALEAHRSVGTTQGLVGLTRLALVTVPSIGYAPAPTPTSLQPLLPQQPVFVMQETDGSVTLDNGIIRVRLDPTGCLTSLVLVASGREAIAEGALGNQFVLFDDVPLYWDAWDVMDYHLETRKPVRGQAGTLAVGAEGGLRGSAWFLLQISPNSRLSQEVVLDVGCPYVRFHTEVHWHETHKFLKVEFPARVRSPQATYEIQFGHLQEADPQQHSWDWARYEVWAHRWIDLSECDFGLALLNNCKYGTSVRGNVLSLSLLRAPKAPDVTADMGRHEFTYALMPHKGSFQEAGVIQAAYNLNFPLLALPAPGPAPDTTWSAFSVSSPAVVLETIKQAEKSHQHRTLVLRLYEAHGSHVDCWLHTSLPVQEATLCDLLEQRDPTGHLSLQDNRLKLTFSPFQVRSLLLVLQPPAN

Trehalase = biological target: T2, Trehalase (Rattus norvegicus, UniProt O70282); assay: Inhibition of Glycosidases (trehalase)in rat intestinal brush border membranes by D-glucose oxidase-peroxidase method; type: cell membranes, Membrane
T2 sequence (O70282 whole entry): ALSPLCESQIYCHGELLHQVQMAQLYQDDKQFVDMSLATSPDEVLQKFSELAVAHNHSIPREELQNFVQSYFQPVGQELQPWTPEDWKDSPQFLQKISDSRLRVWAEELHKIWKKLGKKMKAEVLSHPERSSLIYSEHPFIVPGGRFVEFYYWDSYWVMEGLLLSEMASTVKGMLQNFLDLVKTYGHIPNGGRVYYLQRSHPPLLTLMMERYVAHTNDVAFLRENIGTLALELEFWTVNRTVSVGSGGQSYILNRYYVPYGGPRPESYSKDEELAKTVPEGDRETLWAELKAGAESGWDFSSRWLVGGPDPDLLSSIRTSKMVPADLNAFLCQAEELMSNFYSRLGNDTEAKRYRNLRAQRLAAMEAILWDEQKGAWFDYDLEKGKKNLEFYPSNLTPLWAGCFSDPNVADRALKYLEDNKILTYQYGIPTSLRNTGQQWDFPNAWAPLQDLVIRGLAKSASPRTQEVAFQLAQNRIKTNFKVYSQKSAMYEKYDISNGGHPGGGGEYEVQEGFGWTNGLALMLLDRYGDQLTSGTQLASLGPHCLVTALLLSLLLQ

Mannosidase 2, alpha B1 = biological target: T3, Mannosidase 2, alpha B1 (Rattus norvegicus, UniProt Q6P762); assay: Inhibition of lysosomal Alpha-mannosidase II in rat liver; type: tissue-based
T3 sequence (Q6P762 whole entry): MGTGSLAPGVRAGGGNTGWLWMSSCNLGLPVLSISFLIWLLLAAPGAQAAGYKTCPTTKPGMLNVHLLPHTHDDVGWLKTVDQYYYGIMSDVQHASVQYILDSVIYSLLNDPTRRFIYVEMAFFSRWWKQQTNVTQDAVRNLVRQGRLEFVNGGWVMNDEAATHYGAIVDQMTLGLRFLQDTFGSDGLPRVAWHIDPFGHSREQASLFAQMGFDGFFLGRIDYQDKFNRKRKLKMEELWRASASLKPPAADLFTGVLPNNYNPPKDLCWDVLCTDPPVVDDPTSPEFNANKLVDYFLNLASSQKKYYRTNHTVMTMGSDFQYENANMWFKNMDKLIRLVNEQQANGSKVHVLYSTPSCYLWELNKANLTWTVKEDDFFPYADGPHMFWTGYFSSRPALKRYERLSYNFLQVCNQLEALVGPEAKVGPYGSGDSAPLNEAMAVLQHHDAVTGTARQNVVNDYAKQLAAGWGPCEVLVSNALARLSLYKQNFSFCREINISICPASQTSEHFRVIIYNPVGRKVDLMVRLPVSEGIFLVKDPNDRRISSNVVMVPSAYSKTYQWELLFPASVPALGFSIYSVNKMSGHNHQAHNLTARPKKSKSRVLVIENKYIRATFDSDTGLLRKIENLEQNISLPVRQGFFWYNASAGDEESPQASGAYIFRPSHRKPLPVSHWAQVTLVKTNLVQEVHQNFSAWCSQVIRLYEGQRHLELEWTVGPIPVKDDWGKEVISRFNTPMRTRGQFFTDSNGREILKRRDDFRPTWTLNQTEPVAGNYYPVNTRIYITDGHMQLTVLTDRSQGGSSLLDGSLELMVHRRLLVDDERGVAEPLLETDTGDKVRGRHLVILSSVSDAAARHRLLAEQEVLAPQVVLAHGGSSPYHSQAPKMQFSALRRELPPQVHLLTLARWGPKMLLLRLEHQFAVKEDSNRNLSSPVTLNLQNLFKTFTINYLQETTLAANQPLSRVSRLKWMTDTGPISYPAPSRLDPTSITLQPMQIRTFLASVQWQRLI

MT4 = assay: Concentration giving 50% inhibition of HIV-1 induced cytopathogenicity in MT-4 cells; type: functional, cell-based, Homo sapiens
[1] = Inhibition of endoplasmic reticulum Alpha-Glucosidase II in rat liver; type: tissue-based
[2] = Competitive Inhibitory activity against Endoplasmic reticulum Alpha-Glucosidase II; set-up: species or system Rattus norvegicus
[3] = Inhibition of Cellobiase in rat intestinal brush border membranes by D-glucose oxidase-peroxidase method; type: cell membranes, Membrane
MOLT-4 = assay: Concentration giving 50% inhibition of HIV-1 induced cytopathogenicity in MOLT-4 cells; type: functional, cell-based, Homo sapiens
[4] = Inhibition of lysosomal Alpha-Glucosidase II in rat liver
Alpha-mannosidase 2 [5] = biological target: T4, Alpha-mannosidase 2 (Rattus norvegicus, UniProt P28494); assay: Inhibition of golgi Alpha-mannosidase II in rat liver; type: tissue-based
T4 sequence (P28494 whole entry): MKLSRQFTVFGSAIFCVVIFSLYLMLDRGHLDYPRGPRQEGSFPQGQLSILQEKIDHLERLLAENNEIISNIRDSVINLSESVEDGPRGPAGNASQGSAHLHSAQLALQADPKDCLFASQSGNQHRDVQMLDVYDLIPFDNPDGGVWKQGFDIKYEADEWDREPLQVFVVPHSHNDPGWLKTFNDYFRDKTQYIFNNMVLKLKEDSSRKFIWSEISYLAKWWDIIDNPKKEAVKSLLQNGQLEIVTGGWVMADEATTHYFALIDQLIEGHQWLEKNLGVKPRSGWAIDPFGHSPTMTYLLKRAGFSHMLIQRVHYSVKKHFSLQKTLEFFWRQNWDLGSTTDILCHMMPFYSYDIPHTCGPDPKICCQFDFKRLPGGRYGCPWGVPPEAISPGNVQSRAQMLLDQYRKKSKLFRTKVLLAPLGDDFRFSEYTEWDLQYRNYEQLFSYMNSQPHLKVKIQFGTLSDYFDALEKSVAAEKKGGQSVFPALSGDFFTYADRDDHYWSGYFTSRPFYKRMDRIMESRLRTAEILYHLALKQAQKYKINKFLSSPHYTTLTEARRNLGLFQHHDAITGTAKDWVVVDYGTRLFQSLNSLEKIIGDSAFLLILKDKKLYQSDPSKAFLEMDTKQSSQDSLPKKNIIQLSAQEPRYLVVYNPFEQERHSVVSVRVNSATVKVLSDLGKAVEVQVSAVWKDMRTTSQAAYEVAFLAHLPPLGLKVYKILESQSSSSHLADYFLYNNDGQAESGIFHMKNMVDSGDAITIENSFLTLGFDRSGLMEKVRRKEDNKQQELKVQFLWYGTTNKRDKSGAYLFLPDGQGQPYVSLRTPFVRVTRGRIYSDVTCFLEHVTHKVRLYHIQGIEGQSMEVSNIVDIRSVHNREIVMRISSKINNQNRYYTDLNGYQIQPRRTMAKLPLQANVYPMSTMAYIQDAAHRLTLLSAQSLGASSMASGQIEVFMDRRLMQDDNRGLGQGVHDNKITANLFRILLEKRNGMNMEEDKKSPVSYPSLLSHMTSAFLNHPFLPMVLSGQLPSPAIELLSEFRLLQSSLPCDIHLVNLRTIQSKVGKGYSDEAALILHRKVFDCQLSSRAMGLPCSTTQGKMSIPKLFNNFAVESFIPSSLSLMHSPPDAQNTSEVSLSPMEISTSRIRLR

Alpha-mannosidase 2 [6] = biological target: T4, Alpha-mannosidase 2; assay: Competitive Inhibitory activity against Golgi Alpha-mannosidase II
[7] = biological target: T5, Sucrase-isomaltase, intestinal (Rattus norvegicus, UniProt P23739); assay: Inhibition of Sucrase in rat intestinal brush border membranes by D-glucose oxidase-peroxidase method; type: cell membranes, Membrane
[8] = biological target: T5, Sucrase-isomaltase, intestinal; assay: Inhibition of Glycosidases (isomaltase)in rat intestinal brush border membranes by D-glucose oxidase-peroxidase method; type: cell membranes, Membrane
[9] = biological target: Lactase/phlorizin hydrolase (Rattus norvegicus, UniProt Q02401); assay: Inhibition of Glycosidases (lactase)in rat intestinal brush border membranes by D-glucose oxidase-peroxidase method; type: cell membranes, Membrane
Chain of Lactase/phlorizin hydrolase (Q02401 868-1928 limits assumed): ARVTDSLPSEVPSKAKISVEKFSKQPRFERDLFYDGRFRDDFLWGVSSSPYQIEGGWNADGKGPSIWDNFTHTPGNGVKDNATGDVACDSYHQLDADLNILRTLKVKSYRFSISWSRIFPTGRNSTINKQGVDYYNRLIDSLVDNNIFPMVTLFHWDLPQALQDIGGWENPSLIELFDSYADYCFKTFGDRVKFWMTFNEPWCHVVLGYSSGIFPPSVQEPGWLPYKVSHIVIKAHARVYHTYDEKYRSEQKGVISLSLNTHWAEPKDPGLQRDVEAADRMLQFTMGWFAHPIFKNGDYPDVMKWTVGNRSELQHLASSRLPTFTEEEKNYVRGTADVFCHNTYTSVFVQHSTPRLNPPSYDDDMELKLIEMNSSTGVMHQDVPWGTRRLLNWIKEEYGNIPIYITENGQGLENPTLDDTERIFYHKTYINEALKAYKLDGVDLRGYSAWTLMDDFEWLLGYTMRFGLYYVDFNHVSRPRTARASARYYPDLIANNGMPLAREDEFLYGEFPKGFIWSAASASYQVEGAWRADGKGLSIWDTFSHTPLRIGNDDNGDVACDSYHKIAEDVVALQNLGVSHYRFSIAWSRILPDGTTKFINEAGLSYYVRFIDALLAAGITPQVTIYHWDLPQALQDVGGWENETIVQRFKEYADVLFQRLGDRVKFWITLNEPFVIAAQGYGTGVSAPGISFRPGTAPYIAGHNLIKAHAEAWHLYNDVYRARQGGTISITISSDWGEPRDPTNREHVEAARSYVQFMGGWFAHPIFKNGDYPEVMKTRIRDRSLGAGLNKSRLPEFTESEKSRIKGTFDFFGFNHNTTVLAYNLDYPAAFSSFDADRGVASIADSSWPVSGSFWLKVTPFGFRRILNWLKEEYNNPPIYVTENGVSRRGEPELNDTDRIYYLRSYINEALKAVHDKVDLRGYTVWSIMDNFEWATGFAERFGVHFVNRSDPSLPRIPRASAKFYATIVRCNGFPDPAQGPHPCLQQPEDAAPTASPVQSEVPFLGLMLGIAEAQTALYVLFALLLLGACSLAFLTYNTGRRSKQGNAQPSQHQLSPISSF

T5 sequence (P23739 1-1013 limits assumed): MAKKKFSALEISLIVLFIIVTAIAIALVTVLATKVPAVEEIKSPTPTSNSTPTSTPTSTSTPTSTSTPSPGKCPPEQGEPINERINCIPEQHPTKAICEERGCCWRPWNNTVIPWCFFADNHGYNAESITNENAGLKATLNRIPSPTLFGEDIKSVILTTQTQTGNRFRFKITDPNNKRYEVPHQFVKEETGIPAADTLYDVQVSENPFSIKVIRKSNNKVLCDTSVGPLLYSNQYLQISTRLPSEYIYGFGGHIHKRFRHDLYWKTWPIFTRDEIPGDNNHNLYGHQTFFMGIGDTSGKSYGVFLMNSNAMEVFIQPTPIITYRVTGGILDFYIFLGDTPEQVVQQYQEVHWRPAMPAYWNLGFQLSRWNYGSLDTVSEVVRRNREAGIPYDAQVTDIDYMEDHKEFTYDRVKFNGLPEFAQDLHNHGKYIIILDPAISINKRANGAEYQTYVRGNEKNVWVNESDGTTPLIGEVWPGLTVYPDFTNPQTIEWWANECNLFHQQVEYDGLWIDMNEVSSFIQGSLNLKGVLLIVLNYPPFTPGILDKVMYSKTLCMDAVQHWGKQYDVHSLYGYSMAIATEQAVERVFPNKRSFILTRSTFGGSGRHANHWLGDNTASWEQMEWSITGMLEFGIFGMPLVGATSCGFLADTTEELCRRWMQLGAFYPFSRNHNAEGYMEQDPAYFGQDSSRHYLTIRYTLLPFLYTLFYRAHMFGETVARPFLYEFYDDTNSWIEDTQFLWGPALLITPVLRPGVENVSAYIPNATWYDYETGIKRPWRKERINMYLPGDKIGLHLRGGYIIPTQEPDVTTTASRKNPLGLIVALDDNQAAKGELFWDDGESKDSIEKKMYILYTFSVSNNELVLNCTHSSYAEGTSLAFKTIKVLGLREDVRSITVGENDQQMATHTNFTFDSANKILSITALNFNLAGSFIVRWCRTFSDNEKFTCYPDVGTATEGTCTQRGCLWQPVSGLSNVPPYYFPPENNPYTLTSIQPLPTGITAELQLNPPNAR
T5 sequence (P23739 1014-1841 limits assumed): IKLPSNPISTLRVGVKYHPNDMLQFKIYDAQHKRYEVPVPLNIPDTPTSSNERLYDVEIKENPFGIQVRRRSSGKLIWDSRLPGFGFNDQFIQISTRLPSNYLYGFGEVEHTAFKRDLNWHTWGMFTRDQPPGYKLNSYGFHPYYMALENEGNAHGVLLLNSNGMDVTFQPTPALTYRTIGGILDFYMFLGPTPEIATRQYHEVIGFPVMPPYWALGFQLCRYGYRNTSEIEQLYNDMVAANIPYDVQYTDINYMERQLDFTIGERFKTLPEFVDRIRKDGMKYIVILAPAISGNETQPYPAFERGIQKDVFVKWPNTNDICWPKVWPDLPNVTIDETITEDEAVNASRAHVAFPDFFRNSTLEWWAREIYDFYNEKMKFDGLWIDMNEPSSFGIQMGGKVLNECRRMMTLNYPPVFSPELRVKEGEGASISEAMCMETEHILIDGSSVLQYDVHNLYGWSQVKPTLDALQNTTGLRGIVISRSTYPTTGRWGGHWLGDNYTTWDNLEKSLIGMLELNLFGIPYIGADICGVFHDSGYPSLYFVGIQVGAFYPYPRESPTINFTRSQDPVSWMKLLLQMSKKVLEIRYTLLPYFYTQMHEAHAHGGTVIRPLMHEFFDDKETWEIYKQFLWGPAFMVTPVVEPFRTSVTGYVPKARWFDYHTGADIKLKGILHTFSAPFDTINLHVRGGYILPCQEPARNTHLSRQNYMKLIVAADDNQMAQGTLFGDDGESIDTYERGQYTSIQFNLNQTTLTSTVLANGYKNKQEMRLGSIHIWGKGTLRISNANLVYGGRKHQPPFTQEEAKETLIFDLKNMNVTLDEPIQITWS

Structure (SMILES) | IC50 (Alpha-mannosidase 2C1) | IC50 (Trehalase) | IC50 (Mannosidase 2, alpha B1) | EC50 (MT4) | IC50 [1] | Ki [2] | IC50 [3] | EC50 (MOLT-4) | IC50 [4] | IC50 (Alpha-mannosidase 2 [5]) | Ki (Alpha-mannosidase 2 [6]) | IC50 [7] | IC50 [8] | IC50 [9]
CCCCN1C[C@H](O)[C@@H](O)[C@H](O)[C@H]1CO | < 50 µM | 13 µM | < 50 µM | 49 µg/mL (≈ 223 µM) | 15 µM | 3.7 µM | < 50 µM | 37 µg/mL (≈ 169 µM) | 5.3 µM | < 50 µM | < 50 µM |  |  | 
CCCCN1C[C@@H](O)[C@H](O)[C@H]1CO | < 50 µM | < 50 µM | < 50 µM | > 100 µg/mL | 200 µM | 95 µM | < 50 µM | > 100 µg/mL | 750 µM | 130 µM | 120 µM | 270 µM | 340 µM | < 50 µM
CN1[C@H](CO)[C@@H](O)[C@H](O)[C@H]1CO | 190 µM |  | < 50 µM | > 100 µg/mL | < 50 µM |  | < 50 µM | > 100 µg/mL | 470 µM | < 50 µM |  | 620 µM | < 50 µM | < 50 µM
OC[C@H]1N[C@H](CO)[C@@H](O)[C@@H]1O | 260 µM |  | < 50 µM | > 100 µg/mL | < 50 µM |  |  | > 100 µg/mL |  |  |  | 44 µM | 91 µM | 
CN1C[C@H](O)[C@@H](O)[C@H](O)[C@H]1CO | 500 µM | 28 µM | 1000 µM | 69 µg/mL (≈ 389 µM) | 20 µM | 5.8 µM |  | 100 µg/mL (≈ 564 µM) | 1.5 µM | < 50 µM | < 50 µM | 0.04 µM | 4.4 µM | 4.4 µM
CCCCN1[C@H](CO)[C@@H](O)[C@H](O)[C@H]1CO | 850 µM |  | < 50 µM | > 100 µg/mL | < 50 µM |  | < 50 µM | > 100 µg/mL | < 50 µM | < 50 µM |  | < 50 µM | < 50 µM | < 50 µM
CN1C[C@@H](O)[C@H](O)[C@H]1CO | < 50 µM | < 50 µM | 360 µM | > 100 µg/mL | 310 µM | 150 µM | < 50 µM | > 100 µg/mL | 180 µM | 64 µM | 51 µM | 70 µM | 100 µM | < 50 µM
OC[C@H]1NC[C@@H](O)[C@@H]1O |  | 25 µM |  | > 100 µg/mL | 20 µM | 9.7 µM | < 50 µM | > 100 µg/mL | 130 µM | 46 µM | 35 µM |  |  | 260 µM
OC[C@H]1NC[C@H](O)[C@@H](O)[C@@H]1O [DUVOGLUSTAT] |  |  |  | > 100 µg/mL |  |  |  | > 100 µg/mL | 0.4 µM | < 50 µM | < 50 µM |  |  | 
